The values that follow are results of earlier work, collected in patent US9078910B2, “Compositions comprising spicamycin derivatives and methods of use thereof” (DARA BioSciences, Inc., priority 2012, dated 2015).

Molecules are shown by their SMILES.

The series concerns neuropathic pain. Particulars: Abdi et al. 2000, Kobierski et al. 2003.

As to `CCCCCCCCC/C=C/C=C/C(=O)NCC(=O)N[C@@H]1[C@@H](O)[C@@H](O)[C@@H](Nc2ncnc3[nH]cnc23)O[C@H]1[C@@H](O)CO` [KRN5500, 6-[4-deoxy-4-[(2E,4E)-tetradecadienoylglycyl]amino-L-glycero-β-L-mannoheptopyranosyl]amino-9H-purine], the “Efficacy in rat models of neuropathic pain” value is given as “effective”.
